# Experimental data: BindingDB's records for doi:10.1016/s0960-894x(99)00486-2 (Dupont Pharmaceuticals, 1999)
# Biological target: T1, Gag-Pol polyprotein [588-1027]/[588-1147] (Human immunodeficiency virus 1, UniProt P04585)
# T1 construct: 588-1027; 588-1147
# Assay: HIV-1 RT Assay
# Conditions: pH 8.2; 37 °C
# Source text: The IC50 of reverse transcriptase is the concentration that inhibits 50% of recombinant HIV-1 RT RNA-directed DNA polymerase activity in vitro.
row,Compound,IC50 [µM]
1,"O=C1Nc2c(Cl)cc(Cl)cc2C(C#CC2CC2)(C(F)(F)F)O1 (stereo not drawn) [6,8-dichloro-4-(2-cyclopropylethynyl)-4-(trifluoromethyl)-2,4-dihydro-1H-3,1-benzoxazin-2-one]",> 2
2,"O=C1Nc2ccc(-c3ccccc3)cc2C(C#CC2CC2)(C(F)(F)F)O1 (stereo not drawn) [4-(2-cyclopropylethynyl)-6-phenyl-4-(trifluoromethyl)-2,4-dihydro-1H-3,1-benzoxazin-2-one]",> 2
3,"O=C1Nc2c(cc(F)c(F)c2F)C(C#CC2CC2)(C(F)(F)F)O1 (stereo not drawn) [4-(2-cyclopropylethynyl)-6,7,8-trifluoro-4-(trifluoromethyl)-2,4-dihydro-1H-3,1-benzoxazin-2-one]",> 2
